Assay results: patent publication US9657288B2, “Connector compound peptide phage display” (BICYCLE THERAPEUTICS LIMITED, priority 2008, dated 2017)
*1 amine or outer side, *2 acyl side, *3 side chain or, on linkers, in order; H or OH if unused. Where a SMILES comes first, the peptide text is derived from it. Bridges are numbered along the chain shown (N, C = ends). TBMB = c1c(C[*:1])cc(C[*:3])cc1C[*:2]

Columns and labels:
[1] = tested on: thrombin generation in human plasma; experiment: Contact activation in human plasma: thrombin activation time triggered by actin; format: biochemical; settings: for thrombin formation in human plasma: 50 nM inhibitor concentration
[2] = tested on: factor XIIa and plasma kallikrein in human plasma; experiment: Activation of factor XIIa and plasma kallikrein in human plasma after kaolin (H-D-Pro-Phe-Arg-pNA); format: biochemical; settings: for IC50: human plasma, kaolin, read-out: inhibitor concentration required to reduce factor XIIa activity by 50%
Experimental: (§1) Normal human plasma from single donors was purchased from 3H Biomedical (Uppsala, Sweden). The plasma was centrifuged at 1500×g at 20° C. for 15 minutes to obtain platelet-poor plasma (PPP). Aliquots of the PPP were stored in polypropylene tubes at −80° C. […] Activation of factor XIIa and human plasma kallikrein were measured as follows. 2 μg kaolin was added to the plasma samples, mixed well and incubated for 20 minutes at 37° C. The samples were diluted 250-fold in 50 mM Tris-Cl pH 7.8, 150 mM NaCl. Plasma kallikrein-like activity was measured with the chromogenic substrate H-D-Pro-Phe-Arg-pNA (100 μM; Bachem, Bubendorf, Switzerland) using an absorption plate reader (absorption at […]; Molecular Devices, Sunnyvale, Calif., USA).
as §1, with “was” for “and human plasma kallikrein were”, “μg of” for “μg”, “H-D-Pro-Phe-Arg (SEQ ID No. 37)-pNA” for “H-D-Pro-Phe-Arg-pNA”, “USA). The same chromogenic substrate is also recognized and modified by plasma kallikrein.” for “USA).”

plasma kallikrein [3] = target: T1, plasma kallikrein (Homo sapiens, UniProt P03952); experiment: Activity measurement of chemically synthesized human plasma kallikrein inhibitors (residual activity, Z-Phe-Arg-AMC); format: biochemical; set-up: purchased Innovative Research (Southfiled, Mich., USA); settings: for IC50: synthetic peptide after modification with TBMB, human plasma kallikrein 0.1 nM, read-out: IC50 (nM) Bi-cyclic peptide
T1 sequence (P03952 391-638 limits assumed): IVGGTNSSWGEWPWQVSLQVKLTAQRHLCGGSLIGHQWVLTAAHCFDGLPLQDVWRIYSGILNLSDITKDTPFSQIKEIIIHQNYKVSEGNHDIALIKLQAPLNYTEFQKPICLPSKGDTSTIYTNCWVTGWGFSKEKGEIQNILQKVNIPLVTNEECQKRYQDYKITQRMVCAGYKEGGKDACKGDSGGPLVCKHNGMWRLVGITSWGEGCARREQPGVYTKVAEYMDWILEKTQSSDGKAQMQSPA
T1 sequence (P03952 20-390 partner limits assumed): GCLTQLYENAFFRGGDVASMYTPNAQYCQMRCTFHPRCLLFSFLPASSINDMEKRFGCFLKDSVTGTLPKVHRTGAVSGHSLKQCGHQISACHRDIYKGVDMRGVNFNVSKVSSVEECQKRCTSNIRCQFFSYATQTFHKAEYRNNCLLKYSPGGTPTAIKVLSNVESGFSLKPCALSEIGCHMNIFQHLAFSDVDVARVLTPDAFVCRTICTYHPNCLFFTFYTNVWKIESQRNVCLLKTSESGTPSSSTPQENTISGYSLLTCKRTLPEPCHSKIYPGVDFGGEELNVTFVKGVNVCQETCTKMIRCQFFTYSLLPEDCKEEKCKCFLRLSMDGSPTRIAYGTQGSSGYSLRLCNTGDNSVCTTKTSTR
Experimental: (§2) Recombinant mouse plasma kallikrein from R&D Systems (Minneapolis, Minn., USA) with a signal peptide was proteolytically activated with 0.5 mg/ml thermolysin at 37° C. for 1 hr. […] Inhibitor hydrolysed in one binding loop was generated by incubation of TBMB modified peptide PK15 with human plasma kallikrein at a molar ration of 5:1 for 24 hours at 37° C. and subsequent heat inactivation of the enzyme at 60° C. (30 min). Apparent Ki values were calculated according to the Cheng and Prusoff equation (Cheng, Y. and Prusoff, W. H., Biochem. Pharmacol., 1973).
as §2, with “ratio” for “ration”, “equation.” for “equation (Cheng, Y. and Prusoff, W. H., Biochem. Pharmacol., 1973).”

plasma kallikrein [4] = target: T1, plasma kallikrein; experiment: Hydrolysis of the inhibitor on incubation with human plasma kallikrein; format: in vitro ADME; set-up: purchased Innovative Research (Southfiled, Mich., USA)
Experimental: as §2
as §2, with “ratio” for “ration”, “equation.” for “equation (Cheng, Y. and Prusoff, W. H., Biochem. Pharmacol., 1973).”

factor XIa = target: T2, factor XIa (Homo sapiens, UniProt P03951); experiment: Specificity measurement, factor XIa; format: biochemical; settings: highest concentration tested 10 μM
T2 construct: factor XIa (0.8 nM; Innovative Research, Southfiled, Mich., USA); purchased Innovative Research (Southfiled, Mich., USA)
T2 sequence (P03951 388-625 limits assumed): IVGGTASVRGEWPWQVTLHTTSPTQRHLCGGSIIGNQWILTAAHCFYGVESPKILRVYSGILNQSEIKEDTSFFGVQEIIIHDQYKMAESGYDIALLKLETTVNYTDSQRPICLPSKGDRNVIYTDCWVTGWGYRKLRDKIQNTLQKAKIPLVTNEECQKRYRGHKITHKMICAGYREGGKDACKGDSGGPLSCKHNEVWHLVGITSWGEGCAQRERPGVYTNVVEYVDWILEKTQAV
T2 sequence (P03951 19-387 partner limits assumed): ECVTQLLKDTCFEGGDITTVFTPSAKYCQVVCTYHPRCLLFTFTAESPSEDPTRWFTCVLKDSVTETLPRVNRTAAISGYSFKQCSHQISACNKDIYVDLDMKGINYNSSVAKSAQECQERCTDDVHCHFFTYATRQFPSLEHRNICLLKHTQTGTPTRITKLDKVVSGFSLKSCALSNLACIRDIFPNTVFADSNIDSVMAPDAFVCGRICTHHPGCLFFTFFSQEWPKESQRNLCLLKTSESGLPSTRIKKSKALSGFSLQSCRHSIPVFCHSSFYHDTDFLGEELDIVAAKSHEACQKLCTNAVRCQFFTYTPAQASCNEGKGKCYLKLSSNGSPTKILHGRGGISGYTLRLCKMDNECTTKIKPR

mouse plasma kallikrein = target: T3, mouse plasma kallikrein (Mus musculus, UniProt P26262); experiment: Specificity measurement, mouse plasma kallikrein; format: biochemical; settings: highest concentration tested 10 μM
T3 construct: purchased R&D Systems (Minneapolis, Minn., USA)
T3 sequence (P26262 391-638 limits assumed): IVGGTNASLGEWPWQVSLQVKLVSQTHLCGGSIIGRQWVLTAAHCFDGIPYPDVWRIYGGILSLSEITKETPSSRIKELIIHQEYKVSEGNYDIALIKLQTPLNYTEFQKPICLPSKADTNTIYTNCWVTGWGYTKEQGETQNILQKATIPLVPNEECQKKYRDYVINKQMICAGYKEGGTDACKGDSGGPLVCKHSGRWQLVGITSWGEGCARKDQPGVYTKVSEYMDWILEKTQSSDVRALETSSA
T3 sequence (P26262 20-390 partner limits assumed): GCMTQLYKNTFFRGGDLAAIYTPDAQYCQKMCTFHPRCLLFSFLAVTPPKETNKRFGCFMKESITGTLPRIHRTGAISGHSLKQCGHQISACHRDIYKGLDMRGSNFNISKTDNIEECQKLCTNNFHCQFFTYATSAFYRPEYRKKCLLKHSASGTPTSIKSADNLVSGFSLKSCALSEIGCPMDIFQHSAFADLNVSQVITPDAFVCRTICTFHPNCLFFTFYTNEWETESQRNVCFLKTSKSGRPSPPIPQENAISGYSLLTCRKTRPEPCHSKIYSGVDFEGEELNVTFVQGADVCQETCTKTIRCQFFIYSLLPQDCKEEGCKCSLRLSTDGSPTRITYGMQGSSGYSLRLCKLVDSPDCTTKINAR
Experimental: as §2
as §2, with “ratio” for “ration”, “equation.” for “equation (Cheng, Y. and Prusoff, W. H., Biochem. Pharmacol., 1973).”

human thrombin = target: T4, human thrombin (Homo sapiens, UniProt P00734); experiment: Specificity measurement, thrombin; format: biochemical; settings: highest concentration tested 10 μM
T4 construct: the activity of human thrombin (2 nM; Innovative Research, Southfiled, Mich., USA); purchased Innovative Research (Southfiled, Mich., USA)

Beta-lactamase = Beta-lactamase (Stenotrophomonas maltophilia, UniProt P52700); settings: reference 11; read-out: Affinity IC50; cited from earlier work
Sequence of Beta-lactamase (P52700 34-290): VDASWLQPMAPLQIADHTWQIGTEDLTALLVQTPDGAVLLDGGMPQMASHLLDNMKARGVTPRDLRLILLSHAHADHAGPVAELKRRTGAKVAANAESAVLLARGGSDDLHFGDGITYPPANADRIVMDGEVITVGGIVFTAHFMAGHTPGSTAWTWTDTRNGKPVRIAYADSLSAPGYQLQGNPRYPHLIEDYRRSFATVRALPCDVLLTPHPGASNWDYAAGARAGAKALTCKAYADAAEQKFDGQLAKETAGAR

[5] = target: Urokinase-type plasminogen activator (uPA) (Mus musculus, UniProt P06869); settings: reference 4; read-out: Affinity K1; cited from earlier work
TF-fVII = TF-fVII (Homo sapiens, UniProt P08709); settings: reference 6; read-out: Affinity IC50; cited from earlier work
Sequence of TF-fVII (P08709 213-466 limits assumed): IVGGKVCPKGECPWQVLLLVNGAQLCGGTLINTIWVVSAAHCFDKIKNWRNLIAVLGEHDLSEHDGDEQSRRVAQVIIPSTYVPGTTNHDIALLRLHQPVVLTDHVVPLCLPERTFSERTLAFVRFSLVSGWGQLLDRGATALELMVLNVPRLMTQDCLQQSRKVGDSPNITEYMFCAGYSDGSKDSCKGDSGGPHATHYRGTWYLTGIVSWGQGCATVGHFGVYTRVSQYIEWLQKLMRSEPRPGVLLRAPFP
Sequence of TF-fVII (P08709 61-212 partner limits assumed): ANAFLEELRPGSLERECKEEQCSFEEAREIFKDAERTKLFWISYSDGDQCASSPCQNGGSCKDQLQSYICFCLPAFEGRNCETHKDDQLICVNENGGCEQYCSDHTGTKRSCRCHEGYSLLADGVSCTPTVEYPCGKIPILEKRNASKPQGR
Sequence of TF-fVII (P13726 33-295 partner): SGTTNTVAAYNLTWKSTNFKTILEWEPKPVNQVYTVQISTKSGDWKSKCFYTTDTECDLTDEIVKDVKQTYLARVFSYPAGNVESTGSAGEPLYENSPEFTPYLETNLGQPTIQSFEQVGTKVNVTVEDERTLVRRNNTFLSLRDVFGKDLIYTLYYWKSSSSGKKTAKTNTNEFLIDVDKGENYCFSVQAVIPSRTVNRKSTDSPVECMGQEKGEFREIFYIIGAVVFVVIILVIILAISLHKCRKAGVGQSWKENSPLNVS

[6] = target: Angiotensin converting enzyme 2 (ACE2) (Homo sapiens, UniProt Q9BYF1); settings: reference 7; read-out: Affinity K1; cited from earlier work
Sequence of Angiotensin converting enzyme 2 (ACE2) (Q9BYF1 18-805, species assumed): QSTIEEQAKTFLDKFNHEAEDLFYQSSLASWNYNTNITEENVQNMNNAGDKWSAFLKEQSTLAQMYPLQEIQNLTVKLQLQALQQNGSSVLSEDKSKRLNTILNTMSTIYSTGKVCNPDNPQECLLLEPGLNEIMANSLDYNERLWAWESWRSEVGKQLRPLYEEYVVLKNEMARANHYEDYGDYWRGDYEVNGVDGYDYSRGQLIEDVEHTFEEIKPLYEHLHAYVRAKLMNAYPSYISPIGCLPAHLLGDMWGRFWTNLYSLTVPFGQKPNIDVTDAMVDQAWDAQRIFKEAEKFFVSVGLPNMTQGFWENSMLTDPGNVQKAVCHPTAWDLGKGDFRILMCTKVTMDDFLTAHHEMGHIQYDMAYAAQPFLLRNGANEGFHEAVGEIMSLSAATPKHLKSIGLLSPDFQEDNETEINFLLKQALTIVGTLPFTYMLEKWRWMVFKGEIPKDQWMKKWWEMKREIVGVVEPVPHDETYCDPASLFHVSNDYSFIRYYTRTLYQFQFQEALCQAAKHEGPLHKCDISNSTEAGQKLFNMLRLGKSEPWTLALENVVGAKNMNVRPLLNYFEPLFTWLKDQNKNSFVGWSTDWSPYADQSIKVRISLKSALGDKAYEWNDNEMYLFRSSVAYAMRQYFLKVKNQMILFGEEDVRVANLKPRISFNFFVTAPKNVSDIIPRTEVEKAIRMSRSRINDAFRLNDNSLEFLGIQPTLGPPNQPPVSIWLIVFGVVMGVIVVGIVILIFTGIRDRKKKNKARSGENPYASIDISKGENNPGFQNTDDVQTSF

Chymotrypsin = Chymotrypsin (Bos taurus, UniProt P00766); settings: reference 5; read-out: Affinity K1; cited from earlier work
[7] = in vivo; cited from earlier work
Pancreatic lipase = target: T5, Pancreatic lipase (Sus scrofa, UniProt P00591); settings: reference 10; read-out: Affinity IC50; cited from earlier work
T5 sequence (P00591 1-450): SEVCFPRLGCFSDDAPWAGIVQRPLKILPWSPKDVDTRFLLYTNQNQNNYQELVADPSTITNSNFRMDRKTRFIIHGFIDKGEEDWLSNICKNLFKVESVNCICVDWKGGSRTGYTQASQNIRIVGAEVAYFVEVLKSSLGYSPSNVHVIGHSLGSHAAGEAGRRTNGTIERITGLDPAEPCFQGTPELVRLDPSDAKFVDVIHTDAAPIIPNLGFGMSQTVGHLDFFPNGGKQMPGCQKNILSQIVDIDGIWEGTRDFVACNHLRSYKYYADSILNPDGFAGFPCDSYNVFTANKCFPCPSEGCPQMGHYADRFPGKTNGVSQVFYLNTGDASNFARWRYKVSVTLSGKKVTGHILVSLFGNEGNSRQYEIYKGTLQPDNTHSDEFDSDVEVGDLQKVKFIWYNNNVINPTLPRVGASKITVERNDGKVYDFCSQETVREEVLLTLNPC

DNase II = settings: reference 12; read-out: Affinity K1; cited from earlier work
Urease = Urease (Helicobacter pylori, UniProt P14916+P69996); settings: read-out: Affinity IC50; reference 9; cited from earlier work
Sequence of Urease (P69996 whole entry): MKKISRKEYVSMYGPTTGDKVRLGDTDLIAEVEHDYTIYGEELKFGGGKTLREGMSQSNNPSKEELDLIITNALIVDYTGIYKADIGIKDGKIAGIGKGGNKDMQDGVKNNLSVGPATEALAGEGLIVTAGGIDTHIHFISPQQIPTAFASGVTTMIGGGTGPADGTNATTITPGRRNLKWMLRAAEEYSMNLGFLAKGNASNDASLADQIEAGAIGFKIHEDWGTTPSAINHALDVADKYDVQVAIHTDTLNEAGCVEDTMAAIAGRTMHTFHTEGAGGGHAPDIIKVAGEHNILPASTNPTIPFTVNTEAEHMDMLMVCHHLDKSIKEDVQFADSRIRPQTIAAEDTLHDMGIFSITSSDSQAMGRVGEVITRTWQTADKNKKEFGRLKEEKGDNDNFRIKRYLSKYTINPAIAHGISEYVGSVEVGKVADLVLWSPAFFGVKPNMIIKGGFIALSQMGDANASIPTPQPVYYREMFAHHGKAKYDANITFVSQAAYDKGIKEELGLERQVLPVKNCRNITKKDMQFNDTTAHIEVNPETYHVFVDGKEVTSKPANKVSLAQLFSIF
Sequence of Urease (P14916 whole entry): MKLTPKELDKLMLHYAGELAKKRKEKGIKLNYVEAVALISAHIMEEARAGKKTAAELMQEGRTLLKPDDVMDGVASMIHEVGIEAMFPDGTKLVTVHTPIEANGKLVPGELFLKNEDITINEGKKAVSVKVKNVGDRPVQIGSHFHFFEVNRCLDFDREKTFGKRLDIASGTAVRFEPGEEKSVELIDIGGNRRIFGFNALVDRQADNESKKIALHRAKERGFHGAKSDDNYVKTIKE

[8] = target: Urokinase-type plasminogen activator (uPA) (Homo sapiens, UniProt P00749); settings: reference 3; read-out: Affinity K1; cited from earlier work
ErbB-2 = ErbB-2 (Homo sapiens, UniProt P04626); settings: reference 8; read-out: Affinity K1; cited from earlier work
Human kallikrein 2 = Human kallikrein 2 (Homo sapiens, UniProt P20151); settings: reference 2; read-out: Affinity IC50; cited from earlier work
Sequence of Human kallikrein 2 (P20151 25-261): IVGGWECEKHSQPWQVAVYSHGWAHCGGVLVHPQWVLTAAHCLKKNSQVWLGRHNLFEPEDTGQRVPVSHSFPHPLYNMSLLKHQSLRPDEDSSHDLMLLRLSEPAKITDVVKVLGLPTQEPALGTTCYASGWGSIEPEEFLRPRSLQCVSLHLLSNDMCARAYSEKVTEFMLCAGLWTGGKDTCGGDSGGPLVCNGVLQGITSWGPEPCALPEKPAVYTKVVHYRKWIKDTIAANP

For `CC(C)C[C@@H]1NC(=O)[C@H](C)NC(=O)[C@H](CCC(=O)O)NC(=O)[C@H](CC(=O)O)NC(=O)[C@H](C)NC(=O)[C@@H]2CCCN2C(=O)[C@@H]2CSCc3cc(cc(c3)CSC[C@@H](C(=O)NCC(N)=O)NC1=O)CSC[C@H](NC(=O)[C@H](C)N)C(=O)N[C@@H](CO)C(=O)N[C@@H](CC(=O)O)C(=O)N[C@@H](CCCNC(=N)N)C(=O)N[C@@H](Cc1ccccc1)C(=O)N[C@@H](CCCNC(=N)N)C(=O)N[C@@H](CC(N)=O)C(=O)N2` [PK15] (H-ACSDRFRNCPADEALCG-NH2; linker 2-9-16 via TBMB (inferred)), the “thrombin formation in human plasma” value [1] was “delayed thrombin formation”, the “lag time of thrombin generation compared to control sample (FIG. 8)” value ([1]; 5, 50, 500 or 5000 nM) was “dose-dependent prolongation of lag time” and the “interruption of intrinsic coagulation pathway / contact activation in human plasma ex vivo” value [2] was “efficiently interrupted the intrinsic coagulation pathway”. The “activation of factor XIIa and plasma kallikrein in human plasma” value ([2]; 5 μM, plasma of three donors) was “essentially be suppressed”, the IC50 [2] was 160 nM and the Ki (plasma kallikrein [3]) was 1.5 nM. The IC50 (plasma kallikrein [3]) was 1.7 nM, the “cleavage of a peptide bond on incubation with kallikrein” value (plasma kallikrein [4]; 24 h at 37° C.) was 90% and the “state after prolonged incubation with human plasma kallikrein” value (plasma kallikrein [4]; cleaved in one of the loops) was “remained intact and active”. For the same compound, the “inhibition of human factor XIa” value (factor XIa) was “did not inhibit”, the “inhibition of mouse plasma kallikrein” value (mouse plasma kallikrein) was “did not inhibit” and the “inhibition of human thrombin” value (human thrombin) was “did not inhibit”.

In the case of CVHSPNREC, the IC50 (Beta-lactamase) is listed as 9000 nM.

For CPAYSRYLDC, the Ki [5] is listed as 400 nM.

For EEWEVLCWTWETCER, the IC50 (TF-fVII) is given as 1.5 nM.

In the case of GDYSHCSPLRYYPWWKCTYPDP, the Ki [6] is given as 2.8 nM.

In the case of CCFSWRCRC, the Ki (Chymotrypsin) is given as 1000 nM.

For aprotinin, the “thrombin formation in human plasma” value [1] was “had no effect”, the “lag time of thrombin activation” value ([1]; 5 μM inhibitor concentration) was “more prolonged by aprotinin than by the small molecule inhibitor” and the IC50 [2] was 5000 nM. The adverse effects [7] was “anaphylaxis and renal toxicity”.

For `CC(C)[C@@H]1NC(=O)[C@H](CCCNC(=N)N)NC(=O)[C@@H]2CSCc3cc(cc(c3)CSC[C@@H](C(=O)NCC(N)=O)NC(=O)[C@@H]3CCCN3C(=O)[C@H]([C@@H](C)O)NC(=O)[C@H](Cc3c[nH]c4ccccc34)NC(=O)[C@H](CC(N)=O)NC1=O)CSC[C@H](NC(=O)[C@H](C)N)C(=O)NCC(=O)N[C@@H]([C@@H](C)O)C(=O)NCC(=O)N[C@@H](CCC(=O)O)C(=O)NCC(=O)N[C@@H](CCCNC(=N)N)C(=O)N2` [PK13] (H-ACGTGEGRCRVNWTPCG-NH2; linker 2-9-16 via TBMB), the IC50 (plasma kallikrein [3]) was 39.1 nM.

For CQPHPGQTC, the IC50 (Pancreatic lipase) is given as 16000 nM.

`CSCC[C@@H]1NC(=O)[C@H](CC(C)C)NC(=O)[C@H](CC(=O)O)NC(=O)[C@H](CCC(=O)O)NC(=O)[C@H](Cc2ccc(O)cc2)NC(=O)[C@@H]2CSCc3cc(cc(c3)CSC[C@@H](C(=O)NCC(N)=O)NC(=O)[C@H](Cc3c[nH]c4ccccc34)NC1=O)CSC[C@H](NC(=O)[C@H](C)N)C(=O)N[C@@H](C)C(=O)N1CCC[C@H]1C(=O)N[C@@H](Cc1c[nH]c3ccccc13)C(=O)N[C@@H](CCCNC(=N)N)C(=O)N[C@@H]([C@@H](C)O)C(=O)N[C@@H](C)C(=O)N2` [PK6] (H-ACAPWRTACYEDLMWCG-NH2; linker 2-9-16 via TBMB) showed an IC50 (plasma kallikrein [3]) of 21.2 nM.

For CLRLLQWFLWAC, the Ki (DNase II) is listed as 200 nM.

For YDFYWW, the IC50 (Urease) is given as 30000 nM.

In the case of CSWRGLENHRMC, the Ki [8] is given as 6700 nM.

For KCCYSL, the Ki (ErbB-2) is given as 30000 nM.

In the case of SRFKVWWAAF, the IC50 (Human kallikrein 2) is listed as 3400 nM.

`CC[C@H](C)[C@@H]1NC(=O)[C@H](CCC(=O)O)NC(=O)[C@H]([C@@H](C)CC)NC(=O)[C@@H]2CCCN2C(=O)[C@@H]2CSCc3cc(cc(c3)CSC[C@@H](C(=O)NCC(N)=O)NC(=O)[C@@H]3CCCN3C(=O)[C@H](Cc3ccccc3)NC1=O)CSC[C@H](NC(=O)[C@H](C)N)C(=O)N[C@@H](CO)C(=O)N[C@@H]([C@@H](C)O)C(=O)N[C@@H](CCC(=O)O)C(=O)N[C@@H](CCCNC(=N)N)C(=O)N[C@@H](CCCNC(=N)N)C(=O)N[C@@H](Cc1ccc(O)cc1)C(=O)N2` [PK4] (H-ACSTERRYCPIEIFPCG-NH2; linker 2-9-16 via TBMB) showed an IC50 (plasma kallikrein [3]) of 33 nM.
